Molecules are shown by their SMILES.

The test system of this test is IL-6 production in human foreskin fibroblast cells. Nature of the test: Inhibition of IL-6 Production in Fibroblasts (Cell Assay for Transrepression). In kind it is cell-based. To be noted: IL-1 stimulated human foreskin fibroblasts; for EC50: read-out: agonistic activity (EC50) by inhibiting IL-6 production in Fibroblasts; for Emax: read-out: efficacy by inhibiting IL-6 production in Fibroblasts. On the procedure: 2. Inhibition of IL-6 Production in Fibroblasts (Cell Assay for Transrepression)
Human foreskin fibroblast cells produce IL-6 in response to stimulation by proinflammatory cytokine IL-1.
Human foreskin fibroblast cells (ATCC Cat. No. CRL-2429) are plated on 96 well plates at 5,000 cells per well the day before use, in Iscove's Modified Dulbecco's Media (GibcoBRL Life Technologies Cat. No. 12440-053) supplemented with 10% charcoal filtered FBS (Clonetech Cat. No. SH30068) and Gentamycin (GibcoBRL Life Technologies Cat. No. 15710-064). On the next day, media in the wells is replaced with fresh media. Cells are treated with IL-1 (rhIL-1α, R&D Systems Cat. No. 200-LA) to a final concentration of 1 ng/mL, and with test compounds to final concentrations of 10^−5 M to 10^−8 M, in a total volume of 200 μL per well. Samples are done in duplicates. […] Positive control wells receive IL-1 only and represent maximum (or 100%) amount of IL-6 production. Plates are incubated at 37° C. overnight (15 to 18 hours), and supernatants are harvested at the end of incubation. IL-6 levels in the supernatants are determined by the ELISA kits for IL-6 (MedSystems Diagnostics GmbH, Vienna, Austria, Cat. No. BMS213TEN) according to manufacture's instructions. The extent of inhibition of IL-6 by test compounds is expressed in percentage relative to positive controls. IC50 values of test compounds are derived by non-linear curve fitting.

By EC50 is commonly meant the concentration at which the effect is half-maximal. Consider `OCC(O)Cn1cc(C(O)(c2ccn3c(-c4ccc(F)cc4)ncc3c2)C(F)(F)F)c2ccccc21` (centres unmarked) [3-(3-{2,2,2-Trifluoro-1-[3-(4-fluorophenyl)imidazo[1,5-a]pyridin-7-yl]-1-hydroxyethyl}indol-1-yl)propane-1,2-diol], for which the EC50 was not above 1000 nM and the Emax was more than 50%.
`OCC(O)Cn1cc(C(O)(c2ccc3c(c2)nnn3-c2ccc(F)cc2)C(F)(F)F)c2ccccc21` (centres unmarked) [3-(3-{2,2,2-Trifluoro-1-[1-(4-fluorophenyl)-1H-benzotriazol-5-yl]-1-hydroxyethyl}indol-1-yl)propane-1,2-diol]: the EC50 is not above 1000 nM and the Emax was more than 50%.
The matching figures for `Cn1cc(-n2ncc3cc(C(O)(c4cn(C)c5ccccc45)C(F)(F)F)ccc32)cn1` (centres unmarked) [2,2,2-Trifluoro-1-(1-methyl-1H-indol-3-yl)-1-[1-(1-methyl-1H-pyrazol-4-yl)-1H-indazol-5-yl]ethanol]: not above 1000 nM and more than 50%.
On to `CCOC(=O)c1cc(C(O)(c2ccc3c(cnn3-c3ccc(F)cc3)c2)C(F)(F)F)cn1CC(O)CO` (centres unmarked) [1-(2,3-Dihydroxypropyl)-4-{2,2,2-trifluoro-1-[1-(4-fluorophenyl)-1H-indazol-5-yl]-1-hydroxyethyl}-1H-pyrrole-2-carboxylic acid ethyl ester], for which the EC50 is not above 1000 nM and the Emax was more than 50%.
The matching figures for `Cn1cc(C(O)(c2ccn3c(-c4ccc(F)cc4)ncc3c2)C(F)(F)F)c2ccccc21` (centres unmarked) [2,2,2-Trifluoro-1-[3-(4-fluorophenyl)imidazo[1,5-a]pyridin-7-yl]-1-(1-methyl-1H-indol-3-yl)ethanol]: not above 1000 nM and more than 50%.
Taken in the same sequence, the figures for `Cn1cc(C(O)(c2ccc3c(cnn3-c3cccnc3)c2)C(F)(F)F)c2ccccc21` (centres unmarked) [2,2,2-Trifluoro-1-(1-methyl-1H-indol-3-yl)-1-(1-pyridin-3-yl-1H-indazol-5-yl)ethanol] were not above 1000 nM and more than 50%.
With `C[C@@H](O)Cn1cc(C(O)(c2ccc3c(cnn3-c3ccc(F)cc3)c2)C(F)(F)F)c2ccccc21` (stereo partly drawn) [(R)-1-(3-{2,2,2-Trifluoro-1-[1-(4-fluorophenyl)-1H-indazol-5-yl]-1-hydroxyethyl}indol-1-yl)propan-2-ol], the EC50 was not above 1000 nM and the Emax is more than 50%.
On to `Cn1cc(C(O)(c2ccc3c(cnn3-c3ccsc3)c2)C(F)(F)F)c2ccccc21` (centres unmarked) [2,2,2-Trifluoro-1-(1-methyl-1H-indol-3-yl)-1-(1-thiophen-3-yl-1H-indazol-5-yl)ethanol], for which the EC50 was not above 1000 nM and the Emax is more than 50%.
As for `C=CCn1cc(C(O)(c2ccc3c(cnn3-c3ccc(F)cc3)c2)C(F)(F)F)c(C#N)n1` (centres unmarked) [1-Allyl-4-{2,2,2-trifluoro-1-[1-(4-fluorophenyl)-1H-indazol-5-yl]-1-hydroxyethyl}-1H-pyrazole-3-carbonitrile], the EC50 is not above 1000 nM and the Emax is more than 50%.
The matching figures for `CC(C)NC(=O)n1ncc2cc(C(O)(c3cn(C)c4ccccc34)C(F)(F)F)ccc21` (centres unmarked) [5-[2,2,2-Trifluoro-1-hydroxy-1-(1-methyl-1H-indol-3-yl)ethyl]indazole-1-carboxylic acid isopropylamide]: not above 1000 nM and more than 50%.
With `CNC(=O)CCn1cc(C(O)(c2ccc3c(cnn3-c3ccc(F)cc3)c2)C(F)(F)F)c2ccccc21` (centres unmarked) [N-Methyl-3-(3-{2,2,2-trifluoro-1-[1-(4-fluorophenyl)-1H-indazol-5-yl]-1-hydroxyethyl}indol-1-yl)propionamide], the EC50 is not above 1000 nM and the Emax was more than 50%.
Turning to `COc1nccc2c(C(O)(c3ccc4c(cnn4-c4ccc(F)cc4)c3)C(F)(F)F)c[nH]c12` (centres unmarked) [2,2,2-Trifluoro-1-[1-(4-fluorophenyl)-1H-indazol-5-yl]-1-(7-methoxy-1H-pyrrolo[2,3-c]pyridin-3-yl)ethanol], the EC50 is not above 1000 nM and the Emax was more than 50%.
On to `COc1nccc2c(C(O)(c3ccc4c(cnn4-c4ccc(F)cc4)c3)C(F)(F)F)cn(CC(O)CO)c12` (centres unmarked) [3-(7-Methoxy-3-{2,2,2-trifluoro-1-[1-(4-fluorophenyl)-1H-indazol-5-yl]-1-hydroxyethyl}pyrrolo[2,3-c]pyridin-1-yl)propane-1,2-diol], for which the EC50 was not above 1000 nM and the Emax is more than 50%.
Turning to `N#Cc1nn(CC(O)CO)cc1C(O)(c1ccc2c(cnn2-c2ccc(F)cc2)c1)C(F)(F)F` (centres unmarked) [1-(2,3-Dihydroxypropyl)-4-{2,2,2-trifluoro-1-[1-(4-fluorophenyl)-1H-indazol-5-yl]-1-hydroxyethyl}-1H-pyrazole-3-carbonitrile], the EC50 was not above 1000 nM and the Emax is more than 50%.
For the compound `OC(c1ccc2c(cnn2-c2ccc(F)cc2)c1)(c1c[nH]c2c(Cl)nccc12)C(F)(F)F` (centres unmarked) [1-(7-Chloro-1H-pyrrolo[2,3-c]pyridin-3-yl)-2,2,2-trifluoro-1-[1-(4-fluorophenyl)-1H-indazol-5-yl]ethanol], the EC50 was not above 1000 nM and the Emax was more than 50%.
Taken in the same sequence, the figures for `C=CCn1cc(C(O)(c2ccc3c(cnn3-c3ccc(F)cc3)c2)C(F)(F)F)c2ccn(C)c(=O)c21` (centres unmarked) [1-Allyl-6-methyl-3-{2,2,2-trifluoro-1-[1-(4-fluorophenyl)-1H-indazol-5-yl]-1-hydroxyethyl}-1,6-dihydropyrrolo[2,3-c]pyridin-7-one] were not above 1000 nM and more than 50%.
The matching figures for `OCC(O)Cn1cc(C(O)(c2ccc3c(cnn3-c3ccc(F)cc3)c2)C(F)(F)F)c2ccc(Br)cc21` (centres unmarked) [3-(6-Bromo-3-{2,2,2-trifluoro-1-[1-(4-fluorophenyl)-1H-indazol-5-yl]-1-hydroxyethyl}indol-1-yl)propane-1,2-diol]: not above 1000 nM and more than 50%.
Taken in the same sequence, the figures for `OCCn1cc(C(O)(c2ccc3c(cnn3-c3ccc(F)cc3)c2)C(F)(F)F)c2ncnc(Cl)c21` (centres unmarked) [1-[4-Chloro-5-(2-hydroxyethyl)-5H-pyrrolo[3,2-d]pyrimidin-7-yl]-2,2,2-trifluoro-1-[1-(4-fluorophenyl)-1H-indazol-5-yl]ethanol] were not above 1000 nM and more than 50%.
As to `OCC(O)CCn1cc(C(O)(c2ccc3c(cnn3-c3ccc(F)cc3)c2)C(F)(F)F)c2ccccc21` (centres unmarked) [4-(3-{2,2,2-Trifluoro-1-[1-(4-fluorophenyl)-1H-indazol-5-yl]-1-hydroxyethyl}indol-1-yl)-butane-1,2-diol], the EC50 was not above 1000 nM and the Emax was more than 50%.
For the compound `O=C(O)Cn1cc(C(O)(c2ccc3c(cnn3-c3ccc(F)cc3)c2)C(F)(F)F)c2ccccc21` (centres unmarked) [(3-{2,2,2-Trifluoro-1-[1-(4-fluorophenyl)-1H-indazol-5-yl]-1-hydroxyethyl}indol-1-yl)acetic acid], the EC50 was not above 1000 nM and the Emax was more than 50%.
As to `OC(c1ccc2c(cnn2-c2ccc(F)cc2)c1)(c1cn(CC2CCCO2)c2ccccc12)C(F)(F)F` (centres unmarked) [2,2,2-Trifluoro-1-[1-(4-fluorophenyl)-1H-indazol-5-yl]-1-[1-(tetrahydro-furan-2-ylmethyl)-1H-indol-3-yl]ethanol], the EC50 is not above 1000 nM and the Emax was more than 50%.
As to `N#CCn1cc(C(O)(c2ccc3c(cnn3-c3ccc(F)cc3)c2)C(F)(F)F)c2cccnc21` (centres unmarked) [(3-{2,2,2-Trifluoro-1-[1-(4-fluorophenyl)-1H-indazol-5-yl]-1-hydroxyethyl}pyrrolo[2,3-b]pyridin-1-yl)acetonitrile], the EC50 was not above 1000 nM and the Emax was more than 50%.
